In US10662156B2, “Guanidine derivative and medical use thereof” (Toray Industries, Inc., priority 2016, dated 2020) one finds IC50 data, which are given here for 18 compounds.

Where a name gives a salt, the structure may show the parent alone.

Broadly, the IC50 is the concentration at which inhibition is half-maximal.

Sequence of recombinant GST fusion MALT1 (human MALT1) (Q9UDY8 whole entry, the tested form may be a part): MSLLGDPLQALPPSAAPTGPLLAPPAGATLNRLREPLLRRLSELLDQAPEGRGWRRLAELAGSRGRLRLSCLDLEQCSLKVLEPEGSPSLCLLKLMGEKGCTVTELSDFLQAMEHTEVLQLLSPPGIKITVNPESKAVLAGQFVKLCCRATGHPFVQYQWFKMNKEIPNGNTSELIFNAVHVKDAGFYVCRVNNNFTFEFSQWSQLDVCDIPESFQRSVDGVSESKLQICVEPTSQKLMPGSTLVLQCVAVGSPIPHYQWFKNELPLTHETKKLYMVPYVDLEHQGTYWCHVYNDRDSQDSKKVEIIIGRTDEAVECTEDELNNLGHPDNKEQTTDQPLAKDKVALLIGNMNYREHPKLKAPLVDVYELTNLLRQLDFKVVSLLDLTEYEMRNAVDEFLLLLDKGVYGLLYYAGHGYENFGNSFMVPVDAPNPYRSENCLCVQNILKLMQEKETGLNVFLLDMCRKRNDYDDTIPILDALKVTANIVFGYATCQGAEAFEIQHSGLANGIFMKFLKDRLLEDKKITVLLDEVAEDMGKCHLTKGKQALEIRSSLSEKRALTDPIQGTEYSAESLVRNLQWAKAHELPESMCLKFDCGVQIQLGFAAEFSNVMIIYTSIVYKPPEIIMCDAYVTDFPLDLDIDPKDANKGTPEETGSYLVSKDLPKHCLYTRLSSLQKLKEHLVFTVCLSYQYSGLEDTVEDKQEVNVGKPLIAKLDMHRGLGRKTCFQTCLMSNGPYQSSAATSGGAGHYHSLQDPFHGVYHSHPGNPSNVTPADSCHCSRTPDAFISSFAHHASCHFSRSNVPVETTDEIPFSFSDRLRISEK

The assay addresses recombinant GST fusion MALT1 (human MALT1) (Homo sapiens (Human), UniProt Q9UDY8). The assay can be described thus: Evaluation of inhibition of protease activity of MALT1 (cleavage of fluorescent peptide substrate Ac-LRSR-AMC). In kind it is biochemical. The following applies: substrate Ac-LRSR-AMC 20 μmol/L, 30° C. for 80 minutes. In short, it runs like this:
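GST-tagged full-length human MALT1 from E. coli ([…]) was preincubated with compound 30 min at room temperature. Buffer: MES, 150 mM NaCl, 10% sucrose, 0.1% CHAPS, 10 mM DTT, 1 mol/L ammonium citrate. Ac-LRSR-AMC (20 μM final) was then cleaved 80 min at 30 °C; AMC fluorescence (Ex 380/Em 460) gain gave % inhibition versus no-enzyme and DMSO controls.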
As for `CN(C)C(=O)/N=C(\N)NCc1cnc(-c2ccc(Cl)cc2)c(-c2ccc(Cl)cc2)c1` [Compound of Example 79, 3-(amino(((5,6-bis(4-chlorophenyl)pyridin-3-yl)methyl)amino)methylene)-1,1-dimethylurea], the IC50 worked out at 1880 nM.

For the compound `CCOC(=O)/N=C(\N)NCc1cnc(-c2ccc(Cl)cc2)c(-c2ccc(Cl)cc2)c1` [Compound of Example 81, 1-((5,6-bis(4-chlorophenyl)pyridin-3-yl)methyl)-2-(ethoxycarbonyl)guanidine Hydrochloride], the concentration for half-maximal inhibition (IC50) was 534 nM.

Consider `N/C(=N\C(=O)c1ccccn1)NCc1cnc(-c2ccc(Cl)cc2)c(-c2ccc(Cl)cc2)c1` [Compound of Example 82, N-(amino(((5,6-bis(4-chlorophenyl)pyridin-3-yl)methyl)amino)methylene)picolinamide], for which the IC50 is 744 nM.

Take `N/C(=N\C(=O)c1cscn1)NCc1cnc(-c2ccc(Cl)cc2)c(-c2ccc(Cl)cc2)c1` [Compound of Example 83, N-(amino(((5,6-bis(4-chlorophenyl)pyridin-3-yl)methyl)amino)methylene)thiazole-4-carboxamide]: the IC50 worked out at 942 nM.

`N/C(=N\C(=O)CC(F)(F)F)NCc1cnc(-c2ccc(Cl)cc2)c(-c2ccc(Cl)cc2)c1` [Compound of Example 84, N-(amino(((5,6-bis(4-chlorophenyl)pyridin-3-yl)methyl)amino)methylene)-3,3,3-trifluoropropanamide]: the IC50 turned out to be 1380 nM.

As to `N/C(=N\C(=O)C1CCC(F)(F)CC1)NCc1cnc(-c2ccc(Cl)cc2)c(-c2ccc(Cl)cc2)c1` [Compound of Example 85, N-(amino(((5,6-bis(4-chlorophenyl)pyridin-3-yl)methyl)amino)methylene)-4,4-difluorocyclohexanecarboxamide], the concentration for half-maximal inhibition (IC50) amounted to 373 nM.

In the case of `CC(C)(C(=O)/N=C(\N)NCc1cnc(-c2ccc(Cl)cc2)c(-c2ccc(Cl)cc2)c1)c1ccccc1` [Compound of Example 86, N-(amino(((5,6-bis(4-chlorophenyl)pyridin-3-yl)methyl)amino)methylene)-2-methyl-2-phenylpropanamide], the IC50 came to 880 nM.

On to `N/C(=N\S(=O)(=O)c1ccccc1)NCc1ncc(-c2ccc(Cl)cc2)c(-c2ccc(Cl)cc2)n1` [Compound of Example 87, N-(amino(((4,5-bis(4-chlorophenyl)pyrimidin-2-yl)methyl)amino)methylene)benzenesulfonamide], for which the IC50 came to 72 nM.

Take `COc1nc(-c2ccc(Cl)cc2)c(-c2ccc(Cl)cc2)cc1CN/C(N)=N/S(=O)(=O)c1ccccc1` [Compound of Example 88, N-(amino(((5,6-bis(4-chlorophenyl)-2-methoxypyridin-3-yl)methyl)amino)methylene)benzenesulfonamide]: the half-inhibitory concentration (IC50) was 104 nM.

Regarding `N/C(=N\S(=O)(=O)c1ccccc1)NCc1cc(-c2ccc(Cl)cc2)c(-c2ccc(Cl)cc2)nc1F` [Compound of Example 89, N-(amino(((5,6-bis(4-chlorophenyl)-2-fluoropyridin-3-yl)methyl)amino)methylene)benzenesulfonamide], the IC50 stood at 368 nM.

For `Cc1nc(-c2ccc(Cl)cc2)c(-c2ccc(Cl)cc2)cc1CN/C(N)=N/S(=O)(=O)c1ccccc1` [Compound of Example 90, N-(amino(((5,6-bis(4-chlorophenyl)-2-methylpyridin-3-yl)methyl)amino)methylene)benzenesulfonamide], the IC50 worked out at 234 nM.

Take `N/C(=N\S(=O)(=O)c1ccccc1)NCc1cc(-c2ccc(Cl)cc2)c(-c2ccc(Cl)cc2)nc1O` [Compound of Example 91, N-(amino(((5,6-bis(4-chlorophenyl)-2-hydroxypyridin-3-yl)methyl)amino)methylene)benzenesulfonamide]: the half-maximal inhibitory concentration (IC50) came to 112 nM.

For `N/C(=N\S(=O)(=O)c1ccccc1)NCc1cnc(-c2ccccc2)c(-c2ccc(C(F)(F)F)cc2)c1` [Compound of Example 92, N-(amino(((6-phenyl-5-(4-(trifluoromethyl)phenyl)pyridin-3-yl)methyl)amino)methylene)benzenesulfonamide], the IC50 worked out at 1040 nM.

Regarding `N/C(=N\S(=O)(=O)c1ccccc1)NCc1cnc(-c2ccc(C(F)(F)F)cc2)c(-c2ccccc2)c1` [Compound of Example 93, N-(amino(((5-phenyl-6-(4-(trifluoromethyl)phenyl)pyridin-3-yl)methyl)amino)methylene)benzenesulfonamide], the concentration for half-maximal inhibition (IC50) stood at 1070 nM.

Regarding `N/C(=N\S(=O)(=O)c1ccccc1)NCc1cnc(-c2ccc(Cl)cc2)c(-c2ccc(O)cc2)c1` [Compound of Example 94, N-(amino(((6-(4-chlorophenyl)-5-(4-hydroxyphenyl)pyridin-3-yl)methyl)amino)methylene)benzenesulfonamide Hydrochloride], the IC50 came out at 1610 nM.

For the compound `N/C(=N\S(=O)(=O)c1ccccc1)NCc1cnc(-c2ccc(O)cc2)c(-c2ccc(Cl)cc2)c1` [Compound of Example 95, N-(amino(((5-(4-chlorophenyl)-6-(4-hydroxyphenyl)pyridin-3-yl)methyl)amino)methylene)benzenesulfonamide Hydrochloride], the half-inhibitory concentration (IC50) was found to be 1030 nM.

In the case of `N/C(=N\S(=O)(=O)c1cccc(O)c1)NCc1cnc(-c2ccc(Cl)cc2)c(-c2ccc(Cl)cc2)c1` [Compound of Example 96, N-(amino(((5,6-bis(4-chlorophenyl)pyridin-3-yl)methyl)amino)methylene)-3-hydroxybenzenesulfonamide Hydrochloride], the IC50 turned out to be 2140 nM.

As to `N/C(=N\S(=O)(=O)c1ccccc1)NCc1cnc(-c2ccc(Cl)cc2O)c(-c2ccc(Cl)cc2)c1` [Compound of Example 97, N-(amino(((6-(4-chloro-2-hydroxyphenyl)-5-(4-chlorophenyl)pyridin-3-yl)methyl)amino)methylene)benzenesulfonamide], the IC50 was 922 nM.
